Measurements as given in patent US20240228572A1 (i2o Therapeutics, Inc., priority 2020, published 2024).
*1 amine or outer side, *2 acyl side, *3 side chain or, on linkers, in order; H or OH if unused. Where a SMILES comes first, the peptide text is derived from it. Bridges are numbered along the chain shown (N, C = ends). Side-chain parts run from the residue outwards. [ ]: non-standard residue; d: D form. The star is where a group is joined. C20 diacid = O=C(O)CCCCCCCCCCCCCCCCCCC(=O)*; γGlu = O=C(O)[C@H](CCC(=O)[*:2])N[*:1]; AEEA = NCCOCCOCC(=O)O; Aib = CC(C)(N)C(=O)O

Molecular target: T1, human GLP-1 receptor (GLP-1R) (Homo sapiens, UniProt P43220)
T1 construct: expressed in transfected cells
Test: cAMP accumulation assay, CHO-K1 cells stably expressing human GLP-1R
Format: cell-based
Settings: cAMP accumulation, mean pEC50, Table 10
Procedure: In the presence of the non-specific cAMP/cGMP phosphodiesterase inhibitor, 3-isobutyl-1-methylxanthine (IBMX), accumulating cAMP can be measured in vitro using common detection methods. Thus, it is possible to estimate an in vitro potency (pEC50) for peptides activating each of these receptors using fit dose-response curves for cAMP accumulation.
CHO-K1 cells stably expressing human GLP-1R (Genebank accession #NM_002062) were grown in 90% F12-K media supplemented with 10% FBS and 250 μg/ml G418.
On day 1, CHO-K1 cells were plated at 1.5 million cells per T75 flask in 90% F12-K media supplemented with 10% FBS. On day 3 cells were transfected with 40 mcg of each expression plasmid using Lipofectamine 2000 transfection reagent. On day 5, cells were dispensed at 1000 cells per well in white 384-well OptiPlates in 5 mcL of assay buffer consisting of 1×HBSS, 5 mM HEPES, 0.5 mM IBMX, and 0.1% casein.
Peptides were serially diluted 4-fold in assay buffer to final concentrations ranging from 1×10^−9 M to 9.5×10^−16 M. Two assay controls consisting of 50 mcM forskolin (cAMP system maximum) or assay buffer only (cAMP system minimum) were also prepared. Five microliters of each peptide-concentration, or assay control, was added to triplicate wells and incubated for thirty minutes at room temperature. During this incubation step a 4× europium labelled cAMP tracer solution and a 4× Ulight®-anti-cAMP solution (consisting of an anti-cAMP monoclonal antibody labelled with Ulight™ dye) was prepared according to the manufacturer's protocol (PerkinElmer LANCE Ultra cAMP kit). Following this incubation, 5 mcL europium labelled cAMP and 5 mcL Ulight anti-cAMP antibody was added to each well. The plate was covered to prevent evaporation and incubated for 60 minutes at room temperature in the dark. Plates were read on an Envision fluorescent plate reader (PerkinElmer).
Test values were first normalized to the system maximum and system minimum averaged values in Excel using the formula: (test value−system min average)/(system max average -system min average)*100. Normalized test values represent a baseline corrected percentage of the system maximum cAMP response induced by forskolin. Data from up to 3 replicate tests were analyzed for each peptide. Potency values were estimated using GraphPad Prism software (v7.04) by fitting data to a 4-parameter logistic curve model: Y=Bottom+(Top−Bottom)/(1+10^((LogEC50−X))). The Hill slope was constrained to 1.0. EC50 values were converted to pEC50 values using the formula: pEC50=−Log (EC50).

T1 sequence (P43220 24-463): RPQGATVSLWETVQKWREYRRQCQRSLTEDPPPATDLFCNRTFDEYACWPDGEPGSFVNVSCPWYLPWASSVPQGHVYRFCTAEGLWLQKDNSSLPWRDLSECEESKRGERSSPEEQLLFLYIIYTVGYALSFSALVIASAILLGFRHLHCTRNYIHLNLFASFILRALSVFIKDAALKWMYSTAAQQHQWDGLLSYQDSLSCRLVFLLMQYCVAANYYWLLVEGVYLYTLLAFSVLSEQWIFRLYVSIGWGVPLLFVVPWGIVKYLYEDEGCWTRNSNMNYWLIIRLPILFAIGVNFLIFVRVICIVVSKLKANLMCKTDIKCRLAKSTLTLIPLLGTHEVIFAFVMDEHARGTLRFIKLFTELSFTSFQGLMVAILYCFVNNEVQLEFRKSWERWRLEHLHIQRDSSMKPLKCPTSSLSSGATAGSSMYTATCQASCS

**Q.** `CC(C)C[C@@H]1NC(=O)[C@H](Cc2c[nH]c3ccccc23)NC(=O)[C@@H](NC(=O)[C@@H](NC(=O)[C@H](Cc2ccccc2)NC(=O)[C@H](CCCCNC(=O)CC[C@H](NC(=O)CC[C@H](NC(=O)COCCOCCNC(=O)CCCCCCCCCCCCCCCCCCC(=O)O)C(=O)O)C(=O)O)NC(=O)[C@H](CCC(N)=O)NC(=O)[C@H](C)NC(=O)[C@H](Cc2ccc(O)cc2)NC(=O)[C@H](CCCCN)NC(=O)C(C)(C)NC(=O)[C@H](CC(=O)O)NC(=O)[C@H](CC(C)C)NC(=O)[C@H](Cc2ccc(O)cc2)NC(=O)[C@H](CCCCN)NC(=O)[C@H](CO)NC(=O)[C@H](Cc2ccc(O)cc2)NC(=O)[C@H](CC(=O)O)NC(=O)[C@H](CO)NC(=O)[C@@H](NC(=O)[C@H](Cc2ccccc2)NC(=O)[C@@H](NC(=O)CNC(=O)[C@H](Cc2c[nH]cn2)NC(=O)[C@H](CO)NC(=O)[C@@H](N)Cc2ccc(O)cc2)[C@@H](C)O)[C@@H](C)O)C(C)C)CCCCNC(=O)C[C@@H](C(=O)N[C@@H](CCC(=O)O)C(=O)N2CCC[C@H]2C(=O)N[C@@H](CO)C(=O)N[C@@H](CO)C(=O)NCC(=O)N[C@@H](C)C(=O)N2CCC[C@H]2C(=O)N2CCC[C@H]2C(=O)N2CCC[C@H]2C(=O)N[C@@H](CO)C(=O)O)NC(=O)[C@H](CCC(=O)O)NC1=O` [Compound A30] (H-YSHGTFTSDYSKYLD[Aib]KYAQK([γGlu-γGlu-AEEA-C20 diacid])FVKWLEDEPSSGAPPPS-OH; lactam 24-28) was tested. Which EC50 did it give?
**A.** The EC50 was > 1 nM.

**Q.** For `CC(C)C[C@H](NC(=O)[C@H](Cc1ccc(O)cc1)NC(=O)[C@H](CCCCN)NC(=O)[C@H](CO)NC(=O)[C@H](Cc1ccc(O)cc1)NC(=O)[C@H](CC(=O)O)NC(=O)[C@H](CO)NC(=O)[C@@H](NC(=O)[C@H](Cc1ccccc1)NC(=O)[C@@H](NC(=O)CNC(=O)[C@H](Cc1c[nH]cn1)NC(=O)[C@H](CO)NC(=O)[C@@H](N)Cc1ccc(O)cc1)[C@@H](C)O)[C@@H](C)O)C(=O)N[C@@H](CC(=O)O)C(=O)N[C@@H](CCCCNC(=O)CC[C@H](NC(=O)CC[C@H](NC(=O)COCCOCCNC(=O)CCCCCCCCCCCCCCCCCCC(=O)O)C(=O)O)C(=O)O)C(=O)N[C@@H](CCCCN)C(=O)N[C@@H](Cc1ccc(O)cc1)C(=O)N[C@@H](C)C(=O)N[C@H]1CCC(=O)NCCCC[C@@H](C(=O)N[C@@H](Cc2c[nH]c3ccccc23)C(=O)N[C@@H](CC(C)C)C(=O)N[C@@H](CCC(=O)O)C(=O)N[C@@H](CC(=O)O)C(=O)N[C@@H](CCC(=O)O)C(=O)N2CCC[C@H]2C(=O)N[C@@H](CO)C(=O)N[C@@H](CO)C(=O)NCC(=O)N[C@@H](C)C(=O)N2CCC[C@H]2C(=O)N2CCC[C@H]2C(=O)N2CCC[C@H]2C(=O)N[C@@H](CO)C(=O)O)NC(=O)[C@H](C(C)C)NC(=O)[C@H](Cc2ccccc2)NC(=O)[C@H](CCCCN)NC1=O` [Compound A21] (H-YSHGTFTSDYSKYLDK([γGlu-γGlu-AEEA-C20 diacid])KYAEKFVKWLEDEPSSGAPPPS-OH; lactam 20-24; N-terminus assumed), which EC50 is on record?
**A.** The EC50 was > 1 nM.
